# Key:
# Assay type in all cases: cell-based, human
# HCT116-vector cells = experiment: Boyden chamber transwell migration assay; conditions: 24 h
# Procedure: (§1) HCT116, SW620, LS174T, SW480 and DLD-1 cells were used in cell migration and invasion analysis performed with Boyden chamber assay. 400 μL containing 2.5×10^5 cells were seeded into each transwell chamber with filter membranes of 12.0 μm pore size (Millipore, Schwalbach, Germany). For invasion filter membranes were coated with 50 μL Matrigel (diluted 1:3 in RPMI-1640; BD Biosciences) 10 minutes before cells were seeded. Fresh medium (600 μL) were added to the bottom chamber and cells were allowed to attach to the insets for 15 hours. Both chambers were treated with 1 μM niclosamide or the respective amount of DMSO and incubated at 37° C. and 5% CO2 in a humidified incubator for 24 hours. Afterwards insets were removed and cells that had migrated through the membrane to the lower chamber were trypsinized and counted in a Neubauer chamber (LO-Laboroptik, Bad Homburg, Germany). Each well was counted ten times. Each migration or invasion experiment was performed in duplicate. The average number of migrated or invaded cells was determined for at least three independent experiments.
# (§2) (A) Cell migration of HCT116-vector and HCT116-S100A4 cells exposed to niclosamide treatment. Cells were treated with 1 μM niclosamide for 24 hours and migration rates were measured with Boyden chamber assay. (B) Cell invasion of HCT116-vector and HCT116-S100A4 cells exposed to niclosamide treatment. Cells were treated with 1 μM niclosamide for 24 hours and cell invasion was determined by Boyden chamber assay. (C) Directed migration of HCT116-vector and HCT116-S100A4 cells exposed to niclosamide treatment analyzed by wound healing assay. Wounds of 300 μM width were set in a 60% confluent monolayer of HCT116-vector or HCT116-S100A4 cells on day 1. Cells were treated daily with 1 μM niclosamide for 4 days. Microphotographs of day 4 are presented here with black lines indicating margins of entered wound of day 1; scale bar represents 200 μM. Data represents three independent experiments. (D) Adhesive cell proliferation of HCT116-vector and HCT116-S100A4 cells exposed to niclosamide treatment. Cells were treated daily with 1 μM niclosamide and cell viability was determined with MTT assay. (E) Anchorage-independent cell growth of HCT116-vector and HCT116-S100A4 cells exposed to niclosamide treatment. Cells were plated as single cells into 0.33% (w/v) agarose and treatment (solvent or 1 μM niclosamide) containing medium. After 7 days colonies were visualized by light microscopy at 10× (overview) and 40× (single colony) magnification. (F) Quantification of colonies formed. Number of colonies (of more than 4 cells) was counted and normalized to solvent-treated HCT116-vector cells. Differences of niclosamide vs. solvent-treated cells were analyzed by Student's t test. […]
# HCT116-S100A4 cells = experiment: Boyden chamber transwell migration assay; conditions: 1 μM, 24 h, statistically not significant
# Procedure: as §1, §2
# HCT116 cells = experiment: Anchorage-dependent cell proliferation (MTT), discontinued treatment
# Procedure: For cell proliferation determination of HCT116, SW620, LS174T, SW480 and DLD-1 cells 2×10^3 cells were seeded in 96-well-plates (for each day one plate) and were given 24 hours to attach to the bottom of the well. Cells were from then on treated daily with 1 μM niclosamide or the respective amount of DMSO. For determination of viable cells 3-(4,5-dimethyl-2-thiazol)-2,5-diphenyl-2H-tetrazolium bromide (MTT; Sigma) was added to a final concentration of 0.5 mg per mL and incubated for 3 hours at 37° C. and 5% CO2 in a humidified incubator. […] Crystallized MTT was resolved by 10% SDS in 10 mM HCl and the absorption was measured at 560 nm. […] The average MTT metabolisation was determined of two independent experiments each performed in triplicate.
# (A) S100A4 expression in vitro after discontinued niclosamide treatment. HCT116 cells were treated daily with 1 μM niclosamide for three consecutive days, medium was removed on day 4, and S100A4 expression was analyzed 24, 48, and 72 hours after niclosamide removal. S100A4 expression was analyzed by qRT-PCR and immunoblot. […] Cell migration rates of HCT116 cells treated as in (A) were determined by Boyden chamber assay. Differences in control vs. treated cells were analyzed by Student's t test. […] Cell proliferation was determined by MTT assay. […] (E) Luminescence signal from liver metastases and spleen tumors. […]
smiles,measurement,setting,value
"O=C(Nc1ccc([N+](=O)[O-])cc1Cl)c1cc(Cl)ccc1O [niclosamide, 2′,5-dichloro-4′-nitrosalicylanilide]","migration, mean difference control vs niclosamide",HCT116-vector cells; 1 μM,57.0%
same,activity at 1 µM,"HCT116-vector cells; Homo sapiens, read-out: number of migrated cells, mean % of control",43%
same,"migration rate, mean %",HCT116-S100A4 cells; solvent control 145.0%,117.0%
same,"migration, mean difference control vs niclosamide",HCT116-S100A4 cells,28%
same,anchorage-dependent proliferation,"HCT116 cells; 1 μM daily, vs solvent-treated control",inhibited
same,anchorage-dependent proliferation after removal of niclosamide,"HCT116 cells; niclosamide removed on day 5, following five days",did not reverse the inhibition of cell proliferation

# Source: US11331290B2, “Niclosamide for the treatment of cancer metastasis” (Max-Delbrück-Centrum für Molekulare Medizin in der …, priority 2011, dated 2022)
